The results in this text go back to patent US20090221829A1 (priority 2005, published 2009).

In the test the test system is Candida albicans(KCTC 1940), Aspergillus niger (ATCC 9642) and Saccharomyces cerevisiae. The experiment in a line: Relative antifungal activity by agar dilution method (vs Miconazole).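 Note: scores 5 to 7 mean a lower fungicidal concentration than Miconazole so higher is more potent.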 The class given is cell-based. Particulars: agar dilution method; fungicidal concentration relative to control drug Miconazole (=4). The text has this:
Novel compounds represented by the above chemical formula (I), and the relative activities in accordance with the agar dilution method in Sabouraud dextrose agar media, Czapek agar media and Yeast Extract-Peptone-Dextrose agar media for Candida albicans(KCTC 1940), Aspergillus niger (ATCC 9642) and Saccharomyces cerevisiae are described respectively in following Table 1.
On the technique in general: In agar dilution the substance is mixed into plates at graded concentrations.
With `COc1cc2c(cc1OC)CC[N+](Cc1ccccc1F)=C2.[Cl-]` [Compound No. 1, 2-(2-fluorophenyl)methyl-3,4-dihydro-6,7-dimethoxy-isoquinolinium chloride], the “Relative Activity” value is 6.

Turning to `COc1cc2c(cc1OC)C(C)=[N+](Cc1ccccc1F)CC2.[Cl-]` [Compound No. 2, 1-methyl-2-(2-fluorophenyl)methyl-3,4-dihydro-6,7-dimethoxy-isoquinolinium chloride], the “Relative Activity” value amounted to 6.

For the molecule `COc1cc2c(cc1OC)C(CCl)=[N+](Cc1ccccc1F)CC2.[Cl-]` [Compound No. 3, 1-chloromethyl-2-(2-fluorophenyl)methyl-3,4-dihydro-6,7-dimethoxy-isoquinolinium chloride], the “Relative Activity” value amounted to 6.

Regarding `CCC1=[N+](Cc2ccccc2F)CCc2cc(OC)c(OC)cc21.[Cl-]` [Compound No. 4, 1-ethyl-2-(2-fluorophenyl)methyl-3,4-dihydro-6,7-dimethoxy-isoquinolinium chloride], the “Relative Activity” value stood at 6.

Regarding `CCCC1=[N+](Cc2ccccc2F)CCc2cc(OC)c(OC)cc21.[Cl-]` [Compound No. 5, 1-propyl-2-(2-fluorophenyl)methyl-3,4-dihydro-6,7-dimethoxyisoquinolinium chloride], the “Relative Activity” value worked out at 5.

Take `COc1cc2c(cc1OC)C(C(C)C)=[N+](Cc1ccccc1F)CC2.[Cl-]` [Compound No. 6, 1-i-propyl-2-(2-fluorophenyl)methyl-3,4-dihydro-6,7-dimethoxyisoquinolinium chloride]: the “Relative Activity” value was 5.

In the case of `COc1cc2c(cc1OC)C(CCCCl)=[N+](Cc1ccccc1F)CC2.[Cl-]` [Compound No. 7, 1-(3-chloropropyl)-2-(2-fluorophenyl)methyl-3,4-dihydro-6,7-dimethoxyisoquinolinium chloride], the “Relative Activity” value worked out at 5.

Regarding `COc1cc2c(cc1OC)C(CC(C)C)=[N+](Cc1ccccc1F)CC2.[Cl-]` [Compound No. 8, 1-(2-methyl)propyl-2-(2-fluorophenyl)methyl-3,4-dihydro-6,7-dimethoxyisoquinolinium chloride], the “Relative Activity” value came to 5.

In the case of `CCCCCC1=[N+](Cc2ccccc2F)CCc2cc(OC)c(OC)cc21.[Cl-]` [Compound No. 9, 1-n-pentyl-2-(2-fluorophenyl)methyl-3,4-dihydro-6,7-dimethoxyisoquinolinium chloride], the “Relative Activity” value was found to be 4.

With `CCCCCCC1=[N+](Cc2ccccc2F)CCc2cc(OC)c(OC)cc21.[Cl-]` [Compound No. 10, 1-n-hexyl-2-(2-fluorophenyl)methyl-3,4-dihydro-6,7-dimethoxyisoquinolinium chloride], the “Relative Activity” value turned out to be 4.

Consider `CCCCCCCCCCCCCCCC1=[N+](Cc2ccccc2F)CCc2cc(OC)c(OC)cc21.[Cl-]` [Compound No. 13, 1-n-pentadecyl-2-(2-fluorophenyl)methyl-3,4-dihydro-6,7-dimethoxyisoquinolinium chloride], for which the “Relative Activity” value stood at 2.

For `COc1cc2c(cc1OC)C(c1ccccc1F)=[N+](Cc1ccccc1F)CC2.[Cl-]` [Compound No. 14, 1-(2-fluorophenyl)-2-(2-fluorophenyl)methyl-3,4-dihydro-6,7-dimethoxyisoquinolinium chloride], the “Relative Activity” value is 6.

On to `COc1cc2c(cc1OC)C(c1cccc(F)c1F)=[N+](Cc1ccccc1F)CC2.[Cl-]` [Compound No. 15, 1-(2,3-difluorophenyl)-2-(2-fluorophenyl)methyl-3,4-dihydro-6,7-dimethoxyisoquinolinium chloride], for which the “Relative Activity” value was 6.

`COc1cc2c(cc1OC)C(c1ccc(F)cc1F)=[N+](Cc1ccccc1F)CC2.[Cl-]` [Compound No. 16, 1-(2,4-difluorophenyl)-2-(2-fluorophenyl)methyl-3,4-dihydro-6,7-dimethoxyisoquinolinium chloride]: the “Relative Activity” value is 6.

Consider `COc1cc2c(cc1OC)C(c1ccc(F)c(F)c1)=[N+](Cc1ccccc1F)CC2.[Cl-]` [Compound No. 17, 1-(3,4-difluorophenyl)-2-(2-fluorophenyl)methyl-3,4-dihydro-6,7-dimethoxyisoquinolinium chloride], for which the “Relative Activity” value was found to be 6.

As to `COc1cc2c(cc1OC)C(c1cccc(Cl)c1)=[N+](Cc1ccccc1F)CC2.[Cl-]` [Compound No. 19, 1-(3-chlorophenyl)-2-(2-fluorophenyl)methyl-3,4-dihydro-6,7-dimethoxyisoquinolinium chloride], the “Relative Activity” value was determined as 6.

Take `COc1cc2c(cc1OC)C(c1ccc(Cl)cc1)=[N+](Cc1ccccc1F)CC2.[Cl-]` [Compound No. 20, 1-(4-chlorophenyl)-2-(2-fluorophenyl)methyl-3,4-dihydro-6,7-dimethoxyisoquinolinium chloride]: the “Relative Activity” value is 6.

Consider `CCCCc1ccc(C2=[N+](Cc3ccccc3F)CCc3cc(OC)c(OC)cc32)cc1.[Cl-]` [Compound No. 21, 1-(4-n-butylphenyl)-2-(2-fluorophenyl)methyl-3,4-dihydro-6,7-dimethoxyisoquinolinium chloride], for which the “Relative Activity” value turned out to be 6.

Take `COc1cc2c(cc1OC)C(c1cccc(C(F)(F)F)c1)=[N+](Cc1ccccc1F)CC2.[Cl-]` [Compound No. 23, 1-(3-trifluoromethylphenyl)-2-(2-fluorophenyl) methyl-3,4-dihydro-6,7-dimethoxyisoquinolinium chloride]: the “Relative Activity” value is recorded as 6.

Regarding `COc1cc2c(cc1OC)C(Cc1ccccc1F)=[N+](Cc1ccccc1F)CC2.[Cl-]` [Compound No. 24, 1-(2-fluorophenyl)methyl-2-(2-fluorophenyl)methyl-3,4-dihydro-6,7-dimethoxyisoquinolinium chloride], the “Relative Activity” value stood at 6.

Regarding `COc1cc2c(cc1OC)C(C)=[N+](Cc1ccc(C(F)(F)F)cc1)CC2.[Cl-]` [Compound No. 26, 1-methyl-2-(4-trifluoromethylphenyl)methyl-3,4-dihydro-6,7-dimethoxyisoquinolinium chloride], the “Relative Activity” value is recorded as 6.

On to `CCCCCC1=[N+](Cc2ccc(C(F)(F)F)cc2)CCc2cc(OC)c(OC)cc21.[Cl-]` [Compound No. 27, 1-n-pentyl-2-(4-trifluoromethylphenyl)methyl-3,4-dihydro-6,7-dimethoxyisoquinolinium chloride], for which the “Relative Activity” value came to 4.

Regarding `CCCCCCCC1=[N+](Cc2ccc(C(F)(F)F)cc2)CCc2cc(OC)c(OC)cc21.[Cl-]` [Compound No. 28, 1-n-heptyl-2-(4-trifluoromethylphenyl)methyl-3,4-dihydro-6,7-dimethoxyisoquinolinium chloride], the “Relative Activity” value stood at 4.

As for `CCCCCCCCCCCC1=[N+](Cc2ccc(C(F)(F)F)cc2)CCc2cc(OC)c(OC)cc21.[Cl-]` [Compound No. 29, 1-n-undecyl-2-(4-trifluoromethylphenyl)methyl-3,4-dihydro-6,7-dimethoxyisoquinolinium chloride], the “Relative Activity” value was 1.

For the molecule `CCCCCCCCCCCCCCCC1=[N+](Cc2ccc(C(F)(F)F)cc2)CCc2cc(OC)c(OC)cc21.[Cl-]` [Compound No. 30, 1-n-pentadecyl-2-(4-trifluoromethylphenyl)methyl-3,4-dihydro-6,7-dimethoxyisoquinolinium chloride], the “Relative Activity” value stood at 1.

For the molecule `COc1cc2c(cc1OC)C(c1ccccc1F)=[N+](Cc1ccc(C(F)(F)F)cc1)CC2.[Cl-]` [Compound No. 31, 1-(2-fluorophenyl)-2-(4-trifluoromethylphenyl)methyl-3,4-dihydro-6,7-dimethoxyisoquinolinium chloride], the “Relative Activity” value came to 6.

Take `COc1cc2c(cc1OC)C(c1ccc(C(C)(C)C)cc1)=[N+](Cc1ccc(C(F)(F)F)cc1)CC2.[Cl-]` [Compound No. 32, 1-(4-t-butylphenyl)-2-(4-trifluoromethylphenyl)methyl-3,4-dihydro-6,7-dimethoxyisoquinolinium chloride]: the “Relative Activity” value is given as 6.

In the case of `COc1ccc(C[N+]2=C(C)c3cc(OC)c(OC)cc3CC2)cc1.[Cl-]` [Compound No. 33, 1-methyl-2-(4-methoxyphenyl)methyl-3,4-dihydro-6,7-dimethoxyisoquinolinium chloride], the “Relative Activity” value was found to be 6.

For the molecule `CCCCCC1=[N+](Cc2ccc(OC)cc2)CCc2cc(OC)c(OC)cc21.[Cl-]` [Compound No. 34, 1-n-pentyl-2-(4-methoxyphenyl)methyl-3,4-dihydro-6,7-dimethoxyisoquinolinium chloride], the “Relative Activity” value came out at 4.

Regarding `CCCCCCC1=[N+](Cc2ccc(OC)cc2)CCc2cc(OC)c(OC)cc21.[Cl-]` [Compound No. 35, 1-n-hexyl-2-(4-methoxyphenyl)methyl-3,4-dihydro-6,7-dimethoxyisoquinolinium chloride], the “Relative Activity” value is 4.

With `CCCCCCCC1=[N+](Cc2ccc(OC)cc2)CCc2cc(OC)c(OC)cc21.[Cl-]` [Compound No. 36, 1-n-heptyl-2-(4-methoxyphenyl)methyl-3,4-dihydro-6,7-dimethoxyisoquinolinium chloride], the “Relative Activity” value stood at 3.

For the molecule `CCCCCCCCCCCC1=[N+](Cc2ccc(OC)cc2)CCc2cc(OC)c(OC)cc21.[Cl-]` [Compound No. 37, 1-n-undecyl-2-(4-methoxyphenyl)methyl-3,4-dihydro-6,7-dimethoxyisoquinolinium chloride], the “Relative Activity” value amounted to 2.

Turning to `CCCCCCCCCCCCCCCC1=[N+](Cc2ccc(F)cc2)CCc2cc(OC)c(OC)cc21.[Cl-]` [Compound No. 38, 1-n-pentadecyl-2-(4-fluorophenyl)methyl-3,4-dihydro-6,7-dimethoxyisoquinolinium chloride], the “Relative Activity” value was 1.

On to `COc1cc2c(cc1OC)C(C(C)C)=[N+](Cc1ccc(F)c(F)c1)CC2.[Cl-]` [Compound No. 40, 1-i-propyl-2-(3,4-difluorophenyl)methyl-3,4-dihydro-6,7-dimethoxyisoquinolinium chloride], for which the “Relative Activity” value is on record as 6.
